# “And” between values parts separate entries of the source, which are not always exact repeats. Identical values can stand only once.
# Tests used:
# [1] = DLS size and polydispersity of polymersomes; format: physicochemical; settings: 3 independent measurements
# Protocol: (§1) DLS and Z-potential measurements (Zetasizer Nano ZS, Malvern Instruments, USA) were used to assess the average size, polydispersity, and surface charge of polymersome preparations. The size was measured at a concentration of 1 mg polymer/mL in PBS (10 mM of phosphate and 137 mM of NaCl). The z-potential was measured at 0.2 mg of polymer/mL in NaCl 10 mM). TEM was used to assess the size and morphology of assembled vesicles. Briefly, polymersomes were deposited from a water solution onto copper grids at 1mg/mL, stained with 0.75% phosphotungstic acid (pH 7), air-dried, and imaged by TEM (Tecnai 10, Philips, Netherlands). The number of polymersomes in the suspension was measured using the ZetaWiew instrument (Particle Metrix GmbH, Germany).
# [2] = Z-potential measurement of polymersomes; format: physicochemical; settings: 0.2 mg polymer/mL in NaCl 10 mM; 3 independent measurements
# Protocol: as §1
# NRP-1 [3] = molecular target: T1, NRP-1 (Homo sapiens, UniProt O14786); settings: unless proteolytically processed by uPA; cited from earlier work
# T1 sequence (O14786 22-923): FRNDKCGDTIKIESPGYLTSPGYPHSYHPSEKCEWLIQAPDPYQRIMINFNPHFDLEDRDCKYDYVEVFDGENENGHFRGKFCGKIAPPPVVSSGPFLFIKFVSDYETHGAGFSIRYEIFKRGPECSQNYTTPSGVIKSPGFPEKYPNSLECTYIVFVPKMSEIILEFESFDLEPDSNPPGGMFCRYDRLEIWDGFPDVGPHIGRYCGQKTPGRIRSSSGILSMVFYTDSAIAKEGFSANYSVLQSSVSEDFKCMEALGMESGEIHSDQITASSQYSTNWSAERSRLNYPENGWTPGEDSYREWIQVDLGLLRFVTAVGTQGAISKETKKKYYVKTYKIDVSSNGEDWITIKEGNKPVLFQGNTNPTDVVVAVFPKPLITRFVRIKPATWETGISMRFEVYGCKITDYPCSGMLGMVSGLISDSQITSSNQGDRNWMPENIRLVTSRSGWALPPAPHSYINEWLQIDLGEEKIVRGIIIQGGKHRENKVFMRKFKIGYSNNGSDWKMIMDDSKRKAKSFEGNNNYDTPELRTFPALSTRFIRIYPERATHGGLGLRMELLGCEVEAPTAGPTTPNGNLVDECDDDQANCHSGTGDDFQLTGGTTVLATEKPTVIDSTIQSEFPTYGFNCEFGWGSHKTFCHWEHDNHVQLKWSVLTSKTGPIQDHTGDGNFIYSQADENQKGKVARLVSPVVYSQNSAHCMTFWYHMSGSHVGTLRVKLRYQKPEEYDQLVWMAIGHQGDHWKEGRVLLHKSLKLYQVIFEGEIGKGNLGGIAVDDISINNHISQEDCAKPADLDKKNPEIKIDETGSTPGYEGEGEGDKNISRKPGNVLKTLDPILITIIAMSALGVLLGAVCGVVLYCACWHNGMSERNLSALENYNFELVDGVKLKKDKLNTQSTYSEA
# [4] = test system: orthotopic 4T1 breast tumors; test: In vivo PET-CT imaging of radiolabeled polymersomes in 4T1 tumor mice; set-up: species or system Balb/c mice
# Protocol: (§2) For tumor induction, 1 million 4T1 cells in 50μL of PBS were orthotopically implanted in the mammary gland of Balb/c mice (Charles River Laboratories, Spain). After 3 days, when the tumor volume had reached ∼18 mm^3, the mice were injected in tail vein with 3.7-7.4MBq of radiolabeled polymersomes (1mg polymer, 100 μL, N=5 mice) and subjected to PET-CT scans. During the scan acquisitions the mice were kept anesthetized with 1.5−2% isofluorane blended with O2. The PET-CT scans were performed at 10 min, 2, 6, 12, 24, and 48 h using the Argus PET-CT scanner (Sedecal, Molecular Imaging, Spain). First, PET scans were acquired using the following acquisition protocol: whole body emission scan, 2 beds, 10 min of total acquisition time for the scans at 10 min, 2, 6, 12, and 24 h post-injection and 20 min for the 48 h time point. The acquisition method was static, using 400-700KeV energetic window, FBP reconstruction algorithm, with correction for scatter coincidences. For the CT scans the used current was 140μA, 40kV of voltage, rotation of 360 degrees, 4 shoots, 1 bed, acquisition time of 6 min, and a reconstruction binning of 2. After 48 h of radiolabeled polymersome injection the mice were sacrificed and the tumor, blood, and organs were excised and further used for biodistribution studies. The PET-CT images were processed with the Medical Image Data Examiner AMIDE software. The CT and PET images were overlaid, the tumor volume was manually extracted from the CT scans and the same ROI was applied in the PET images, averaged, and expressed as percentage of injected dose per cubic centimeter of tissue (ID/cc). For the rendered 3D PET-CT images, PMOD image analysis software (PMOD Technologies Ltd, Zürich, Switzerland) was used. A 3D Gauss Filter of 1.5x1.5x1.5mm was applied to the PET image in order to increase the signal to noise ratio for 3D visualization.
# [5] = Elimination rate of 124I from whole-body PET signal; set-up: species or system Balb/c mice; settings: mouse, in vivo
# Protocol: (§3) For biodistribution studies, the tumor, blood, and organs were weighed and the radioactivity was measured using the automatic gamma counter. A standard curve was generated using ^124I to determine the relationship between cpm and Bq. The biodistribution was expressed as percentage of injected dose per gram of tissue (ID/g). To determine the elimination rate of polymersomes, the radioactive signal in the whole mouse body was measured from the PET images at 10 min, 2, 6, 12, 24, and 48 h post-injection and normalized by the signal at 10 min post-injection. The elimination rate was expressed as signal in mouse x 100 divided by the signal at time zero.
# [6] = test system: orthotopic 4T1 breast tumors; test: Ex vivo biodistribution by gamma counter in 4T1 tumor mice; set-up: species or system Balb/c mice; settings: for Increase in tumor accumulation by LinTT1 functionalization: versus untargeted polymersomes, 48 h, % ID/g
# Protocol: as §2, §3
# [7] = test system: human recombinant p32 protein; test: Binding of radiolabeled polymersomes to p32-coated magnetic beads; settings: p32-coated Ni-NTA magnetic beads, 1 h, room temperature, 1% BSA, gamma counter, N=3
# Protocol: Recombinant hexahistidine–tagged p32 was bacterially expressed and purified as previously described. For protein binding assays, Ni-NTA magnetic agarose beads (Qiagen, Germany) in binding buffer (50 mM Tris pH 7.4, 150 mM NaCl, 5mM imidazole) were coated with p32 protein at 15 μg of protein/10μL beads. Radiolabeled polymersomes were incubated with the p32-coated beads in binding buffer containing 1% BSA at room temperature for 1 h. The magnetic beads were washed with binding buffer and resuspended in a final volume of 1mL of binding buffer. The radioactivity of each sample was quantified by automatic gamma counter (2470 Wizard 2, Perkin Elmer).
# NRP-1 [8] = molecular target: T1, NRP-1; test: Binding of radiolabeled polymersomes to NRP1-coated magnetic beads; settings: 1 h incubation, gamma counter, N=3
# [9] = 48 h after i.v. injection, gamma counter
substance,measurement,setting,value
"Cys-Tyr-Ahx-LinTT1 [LinTT1-Tyr-PS, PEG-PCL polymersomes functionalized with Cys-Tyr-Ahx-LinTT1 peptide]",Pdi,[1]; 1 mg polymer/mL in PBS,0.15
same,Size (hydrodynamic diameter),"[1]; intensity distribution, 1 mg polymer/mL in PBS (10 mM phosphate, 137 mM NaCl)",~130 nm and 124 ± 62 nm
same,Z-pot,[2],-0.1 ± 4 mV
AKRGARSTA [LinTT1],Binding of the peptide to NRP-1,NRP-1 [3],does not bind
"Cys-Tyr-Ahx-LinTT1 [LinTT1-Tyr-^124I-PS, 124I-radiolabeled PEG-PCL polymersomes functionalized with Cys-Tyr-Ahx-LinTT1 peptide]","AUC in tumor, increase over non-targeted polymersomes","[4]; AUC of % ID/cc tumor versus time, 10 min to 48 h, N=5 mice",~60%
same,Tumor accumulation at 48 h,"[4]; PET quantification, 48 h after i.v. injection, N=5 mice, SEM",12±0.9 ID/cc
same,"Tumor accumulation at 24 h, increase over untargeted polymersomes","[4]; PET, 24 h after injection, N=5 mice",67%
same,Accumulation in tumor at 24 h,"[4]; i.v., 1 mg polymer, tumors ~20 mm^3, 24 h after administration, PET quantification",up to 20 % ID/cc
same,Tumor accumulation (no time stated),"[4]; i.v., PET quantification, discussion statement",> 20 % ID/cc
same,Injected polymersomes (124I) remaining in the body after 48 h,[5],45%
same,Injected polymersomes (124I) remaining in the body at 24 h,[5],67%
same,Accumulation in sentinel lymph node relative to Tyr-124I-PS,[6]; [9],more than 2 fold
same,Ratio of % ID/g in tumor to liver,[6]; [9],2.5 times
same,Accumulation in tumors at 48 h,"[6]; excised tumors, gamma counter, 48 h after i.v. injection, N=6, SEM",26±3 % ID/g
same,Increase in tumor accumulation by LinTT1 functionalization,[6],> 70%
same,Increase in tumor accumulation by LinTT1 functionalization,[6]; listed as LinTT1-polymersomes,about 70%
same,Increase in binding to p32 beads compared to non-targeted polymersomes,[7],~10 fold
same,Binding to NRP-1,NRP-1 [8],did not bind
